Measured values taken from US8163756B2 (priority 2004, dated 2012).
Structures can show the parent of a compound that is named as a salt. Where two headings read alike, the source gives them in different places.

What was measured:
Type in all cases: biochemical
Abl kinase [1] = biological target: T1, Abl kinase (Homo sapiens, UniProt P00519); test: Abl kinase assay A2 (as A1, 1.1 nM enzyme, 2 h pre-incubation, 0.5 mM ATP)
T1 sequence (P00519 229-512): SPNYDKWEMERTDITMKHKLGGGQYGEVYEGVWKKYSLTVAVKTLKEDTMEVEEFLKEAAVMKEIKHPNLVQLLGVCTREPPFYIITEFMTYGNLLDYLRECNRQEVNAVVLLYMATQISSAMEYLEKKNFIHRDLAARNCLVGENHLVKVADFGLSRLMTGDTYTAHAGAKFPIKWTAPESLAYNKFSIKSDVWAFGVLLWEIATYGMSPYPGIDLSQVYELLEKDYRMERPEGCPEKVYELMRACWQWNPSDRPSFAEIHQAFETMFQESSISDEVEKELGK
Protocol: (§1) IC50 values were calculated from a series of percent inhibition values determined at a range of inhibitor concentrations using software routines as implemented in the GraphPad Prism software package.

KDR kinase [2] = biological target: T2, KDR kinase (Homo sapiens, UniProt P35968, DEL940-989/E990V); test: KDR kinase assay K2 (as K1, 2.1 nM enzyme, 2 h pre-incubation, 1.0 mM ATP)
T2 sequence (P35968 with tags, fused parts or gaps DEL940-989/E990V): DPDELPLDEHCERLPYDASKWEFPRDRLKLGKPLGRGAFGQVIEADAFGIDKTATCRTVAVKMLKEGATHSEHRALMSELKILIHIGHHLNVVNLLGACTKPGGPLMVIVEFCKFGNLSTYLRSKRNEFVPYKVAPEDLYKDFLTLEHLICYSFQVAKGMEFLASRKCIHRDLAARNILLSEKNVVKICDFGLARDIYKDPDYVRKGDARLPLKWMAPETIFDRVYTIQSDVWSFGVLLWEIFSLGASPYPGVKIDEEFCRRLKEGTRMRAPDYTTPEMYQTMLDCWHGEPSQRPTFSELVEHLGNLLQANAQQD
Protocol: as §1

[3] = biological target: phosphorylated p-38-alpha kinase (Homo sapiens, UniProt Q16539); test: P-38 alpha kinase assay P1 (coupled spectrophotometric, 2 h pre-incubation)
phosphorylated p-38-alpha kinase, sequence (Q16539 1-360 isoform Q16539-2): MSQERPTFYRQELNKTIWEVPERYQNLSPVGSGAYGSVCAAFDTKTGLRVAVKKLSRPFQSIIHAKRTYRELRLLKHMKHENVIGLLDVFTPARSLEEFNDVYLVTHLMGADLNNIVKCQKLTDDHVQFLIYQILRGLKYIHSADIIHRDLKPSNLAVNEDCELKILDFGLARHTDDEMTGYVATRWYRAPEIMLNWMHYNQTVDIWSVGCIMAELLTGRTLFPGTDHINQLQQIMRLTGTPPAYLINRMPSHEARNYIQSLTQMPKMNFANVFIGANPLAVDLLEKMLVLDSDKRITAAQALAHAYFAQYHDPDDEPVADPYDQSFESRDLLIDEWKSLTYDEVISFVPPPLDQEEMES

Abl kinase [4] = biological target: T1, Abl kinase; test: Abl kinase assay A1 (pyruvate kinase/lactate dehydrogenase coupled, spectrophotometric); conditions: Method A1; read-out: Abl Data (IC50)
Protocol: as §1

KDR kinase [5] = biological target: T2, KDR kinase; test: KDR kinase assay K1 (pyruvate kinase/lactate dehydrogenase coupled, spectrophotometric); conditions: Method K1; read-out: KDR Data (IC50)
Protocol: as §1

B-Raf(V599E) kinase [6] = biological target: T3, B-Raf(V599E) kinase (Homo sapiens, UniProt P15056, V600E); test: B-Raf(V599E) kinase assay B2 (construct 2 at 2 nM, 1 h pre-incubation)
Protocol: (§2) The test compounds were incubated with the reaction mixtureat 30° C. for 2 h. […] The reaction rate was calculated using the […] time frame. […] IC50 values were calculated from a series of percent inhibition values determined at a range of inhibitor concentrations using software routines as implemented in the GraphPad Prism software package.
Same as assay B1 except that (1) construct 2 was employed at a nominal concentration of 2 nM (2) the reaction was pre-incubated at 30° C. for 1 h prior to initiation with ATP (3) a reading time frame of 0.5 h to 1.5 h.
Target sequence in this assay (P15056 433-726 V600E): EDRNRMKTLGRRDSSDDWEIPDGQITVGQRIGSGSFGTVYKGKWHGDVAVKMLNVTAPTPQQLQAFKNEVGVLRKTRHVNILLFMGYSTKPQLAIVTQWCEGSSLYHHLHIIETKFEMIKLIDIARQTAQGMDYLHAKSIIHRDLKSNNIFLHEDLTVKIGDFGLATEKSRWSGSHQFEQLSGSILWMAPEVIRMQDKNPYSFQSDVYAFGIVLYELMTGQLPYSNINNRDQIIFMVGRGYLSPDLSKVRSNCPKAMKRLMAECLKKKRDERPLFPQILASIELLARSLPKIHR

B-Raf(V599E) kinase [7] = biological target: T3, B-Raf(V599E) kinase; test: B-Raf(V599E) kinase assay B1 (construct 1, MEK1 substrate, coupled spectrophotometric)
Protocol: as §2
Target sequence in this assay (P15056 with tags, fused parts or gaps V600E): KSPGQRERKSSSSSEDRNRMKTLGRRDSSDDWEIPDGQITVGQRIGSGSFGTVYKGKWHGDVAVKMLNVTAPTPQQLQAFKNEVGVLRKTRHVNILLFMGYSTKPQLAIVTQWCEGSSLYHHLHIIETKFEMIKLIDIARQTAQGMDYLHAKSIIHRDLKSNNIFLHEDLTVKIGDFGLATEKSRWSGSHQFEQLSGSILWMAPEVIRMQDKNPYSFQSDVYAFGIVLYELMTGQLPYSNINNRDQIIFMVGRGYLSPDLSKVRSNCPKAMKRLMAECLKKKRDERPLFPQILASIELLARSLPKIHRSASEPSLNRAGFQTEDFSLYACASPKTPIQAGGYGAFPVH

[8] = Method A2, read-out: Abl Data (IC50)
[9] = Method K2, read-out: KDR Data (IC50)
[10] = method P1 (2 h pre-incubation), read-out: P-38 Data

| SMILES | IC50 (Abl kinase [1]; [8]) [nM] | IC50 (KDR kinase [2]; [9]) [nM] | IC50 [3, 10] [nM] | IC50 (B-Raf(V599E) kinase [7]) [nM] | other results |
| --- | --- | --- | --- | --- | --- |
| NC(=O)Cc1cccc(-c2ccc(C(F)(F)F)cc2NC(=O)Nc2ccc(-c3cccc4c3CNC4=O)cc2)c1 [Example 33, [1,1′-biphenyl]-2′-(3-(4-(1-oxoisoindolin-4-yl)phenyl)ureido)-4′-(trifluoromethyl)-3-acetic acid amide] | 250 | 14 | 300 | – | – |
| CC(C)(C)c1cc(NC(=O)Nc2cccc(Cl)c2Cl)n(-c2cccc(-c3cn[nH]c3)c2)n1 [Example 50, 1-(1-(3-(1H-pyrazol-4-yl)phenyl)-3-t-butyl-1H-pyrazol-5-yl)-3-(2,3-dichlorophenyl)urea] | – | – | 29 | – | IC50 (Abl kinase [4]): 380 nM; IC50 (KDR kinase [5]): 52 nM; IC50 (B-Raf(V599E) kinase [6]): 168 nM |
| CC(C)(C)c1cc(NC(=O)Nc2cccc(Oc3cccnc3)c2)n(-c2ccc3ncccc3c2)n1 [Example 55, 1-(3-t-butyl-1-(quinolin-6-yl)-1H-pyrazol-5-yl)-3-(3-(pyridin-3-yloxy)phenyl)urea] | 3.5 | 4 | 130 | 5.4 | – |
| CC(C)(C)c1cc(NC(=O)Nc2cccc(Oc3cccnc3)c2)n(-c2cc(CN)c3ccccc3c2)n1 [Example 72, 1-(1-(4-(aminomethyl)naphthalen-2-yl)-3-t-butyl-1H-pyrazol-5-yl)-3-(3-(pyridin-3-yloxy)phenyl)urea] | 2 | 8.5 | – | 4.4 | – |
| CC(C)(C)c1cc(NC(=O)Nc2cc(F)cc(F)c2F)n(-c2cc(CC(N)=O)c3ccccc3c2)n1 [Example 85, 1-(1-(4-(2-amino-2-oxoethyl)naphthalen-2-yl)-3-t-butyl-1H-pyrazol-5-yl)-3-(2,3,5-trifluorophenyl)urea] | – | – | – | – | IC50 (Abl kinase [4]): 33 nM; IC50 (B-Raf(V599E) kinase [6]): 219 nM |
| CC(C)(C)c1cc(NC(=O)Nc2ccc(F)c(F)c2F)n(-c2cc(CC(=O)NCC(O)CO)c3ccccc3c2)n1 (stereo not shown) [Example 96, 1-(3-t-butyl-1-(4-(2-(2,3-dihydroxypropyl-amino)-2-oxoethyl)naphthalen-2-yl)-1H-pyrazol-5-yl)-3-(2,3,4-trifluorophenyl)urea] | – | – | 48 | – | IC50 (Abl kinase [4]): 100 nM; IC50 (B-Raf(V599E) kinase [6]): 378 nM |
| CC(C)(C)c1cc(NC(=O)Nc2cccc(Oc3cccnc3)c2)n(-c2ccc3[nH]ccc3c2)n1 [Example 116, 1-(3-t-butyl-1-(1H-indol-5-yl)-1H-pyrazol-5-yl)-3-(3-(pyridin-3-yloxy)phenyl)urea] | 6.6 | 5 | – | 5.9 | – |
| CC(C)(C)c1cc(NC(=O)Nc2cccc(Oc3cccnc3)c2)n(-c2ccc3c(c2)CCN3)n1 [Example 119, 1-(3-t-butyl-1-(indolin-5-yl)-1H-pyrazol-5-yl)-3-(3-(pyridin-3-yloxy)phenyl)urea] | 12 | – | 60 | 9.1 | IC50 (KDR kinase [5]): 18 nM |
| CC(C)(C)c1cc(NC(=O)Nc2cccc(Cl)c2Cl)n(-c2ccc3c(c2)CNCC3)n1 [Example 123, 1-[3-t-butyl-1-(1,2,3,4-tetrahydroisoquinolin-7-yl)-1H-pyrazol-5-yl]-3-(2,3-dichloro-phenyl)urea] | 290 | – | – | 4.9 | IC50 (KDR kinase [5]): 190 nM |
| CC(C)(C)c1cc(NC(=O)Nc2cccc(Cl)c2Cl)n(-c2ccc3c(c2)CCNC3)n1 [Example 138, 1-(3-t-butyl-1-(1,2,3,4-tetrahydroisoquinolin-6-yl)-1H-pyrazol-5-yl)-3-(2,3-dichlorophenyl)urea] | 100 | – | 140 | 3.2 | IC50 (KDR kinase [5]): 300 nM |
| CC(C)(C)c1cc(NC(=O)Nc2cccc(Oc3cccnc3)c2)n(-c2ccc3c(c2)CCNC3)n1 [Example 141, 1-(3-t-butyl-1-(1,2,3,4-tetrahydro-isoquinolin-6-yl)-1H-pyrazol-5-yl)-3-(3-(pyridin-3-yloxy)phenyl)urea] | – | 8.5 | 730 | 7.5 | IC50 (Abl kinase [1]): 1.5 nM |
| CC(C)(C)c1cc(NC(=O)Nc2ccc(-c3cccc4c3CNC4=O)cc2)n(-c2ccc3c(c2)CCNC3)n1 [Example 151, 1-(3-t-butyl-1-(1,2,3,4-tetrahydroisoquinolin-6-yl)-1H-pyrazol-5-yl)-3-(4-(1-oxoisoindolin-4-yl)phenyl)urea hydrochloride] | – | – | – | – | IC50 (Abl kinase [1]): 8 nM; IC50 (KDR kinase [2]): 3.5 nM |
| CC(C)(C)c1cc(NC(=O)Nc2cccc(Oc3cccnc3)c2)n(-c2ccc3[nH]c(=O)ccc3c2)n1 [Example 156, 1-(3-t-butyl-1-(2-oxo-1,2-dihydroquinolin-6-yl)-1H-pyrazol-5-yl)-3-(3-(pyridin-3-yloxy)phenyl)urea] | 5 | 3.2 | – | 4.1 | – |
| CNC(=O)c1cc(Oc2ccc(NC(=O)Nc3cc(C(C)(C)C)nn3-c3ccc4[nH]c(=O)ccc4c3)cc2)ccn1 [Example 159, 1-(3-t-butyl-1-(2-oxo-1,2-dihydroquinolin-6-yl)-1H-pyrazol-5-yl)-3-(4-(2-(methylcarbamoyl)pyridin-4-yloxy)phenyl)urea] | 2.3 | – | 72 | 14 | – |
| CNC(=O)c1cc(Oc2ccc(NC(=O)Nc3cc(C(C)(C)C)nn3-c3ccc4nc(N(C)C)ccc4c3)cc2)ccn1 [Example 175, 1-(3-t-butyl-1-(2-(dimethylamino)quinolin-6-yl)-1H-pyrazol-5-yl)-3-(4-(2-(methylcarbamoyl)pyridin-4-yloxy)phenyl)urea] | 1.5 | – | 160 | 30 | – |
| CC(C)(C)c1cc(NC(=O)Nc2cccc(Oc3cccnc3)c2)n(-c2ccc3c(c2)CC(C(N)=O)NC3)n1 (stereo not shown) [Example 179, 1-(3-t-butyl-1-(3-carbamoyl-1,2,3,4-tetrahydroisoquinolin-6-yl)-1H-pyrazol-5-yl)-3-(3-(pyridin-3-yloxy)phenyl)urea] | 3 | 6.4 | 96 | 17 | – |
| CNC(=O)C1NCCc2cc(-n3nc(C(C)(C)C)cc3NC(=O)Nc3cccc(Oc4cccnc4)c3)ccc21 (stereo not shown) [Example 180, 1-(3-t-butyl-1-(1-(methylcarbamoyl)-1,2,3,4-tetrahydroisoquinolin-6-yl)-1H-pyrazol-5-yl)-3-(3-(pyridin-3-yloxy)phenyl)urea] | 9 | 7.8 | 65 | 11 | – |
| Cn1c(=O)c(-c2cccc(NC(=O)Nc3cc(C(C)(C)C)nn3-c3ccc4c(c3)CC(C(N)=O)NC4)c2)cc2cncnc21 (stereo not shown) [Example 185, 1-(3-t-butyl-1-(3-carbamoyl-1,2,3,4-tetrahydroisoquinolin-6-yl)-1H-pyrazol-5-yl)-3-(3-(8-methyl-7-oxo-7,8-dihydropyrido[2,3-d]pyrimidin-6-yl)phenyl)urea dihydrochloride] | – | – | – | 6.9 | IC50 (Abl kinase [1]): 2.7 nM; IC50 [3]: 23 nM |
| CNC(=O)C1Cc2cc(-n3nc(C(C)(C)C)cc3NC(=O)Nc3cccc(Oc4cccnc4)c3)ccc2CN1 (stereo not shown) [Example 190, 1-(3-t-butyl-1-(3-(methylcarbamoyl)-1,2,3,4-tetrahydroisoquinolin-6-yl)-1H-pyrazol-5-yl)-3-(3-(pyridin-3-yloxy)phenyl)urea] | 4 | 8.1 | 78 | – | – |
| COc1cccc(-n2nc(C(C)(C)C)cc2NC(=O)Nc2ccccc2F)c1 [Example 235, 1-[3-t-butyl-1-(3-methoxy-phenyl)-1H-pyrazol-5-yl]-3-(2-fluorophenyl)urea] | – | 3500 | 120 | – | IC50 (B-Raf(V599E) kinase [6]): 1040 nM |
| CC(C)(C)c1cc(NC(=O)Nc2cc(F)c(F)cc2F)n(-c2cccc(-c3cccnc3)c2)n1 [Example 275, 1-(3-t-butyl-1-(3-(pyridin-3-yl)phenyl)-1H-pyrazol-5-yl)-3-(2,4,5-trifluorophenyl)urea] | – | – | – | – | IC50 (B-Raf(V599E) kinase [6]): 832 nM |
| CC(C)(C)c1cc(NC(=O)Nc2cccc(Oc3cccnc3)c2)n(-c2cccc(-c3cccnc3)c2)n1 [Example 277, 1-(3-t-butyl-1-(3-(pyridin-3-yl)phenyl)-1H-pyrazol-5-yl)-3-(3-(pyridin-3-yloxy)phenyl)urea] | 29 | 10 | 180 | 11 | – |
| CC(C)(C)c1cc(NC(=O)Nc2cccc(Cl)c2Cl)n(-c2cccc(-c3n[nH]c(=O)o3)c2)n1 [Example 278, 1-(3-t-butyl-1-(3-(5-oxo-4,5-dihydro-1,3,4-oxadiazol-2-yl)phenyl)-1H-pyrazol-5-yl)-3-(2,3-dichlorophenyl)urea] | – | – | – | – | IC50 (B-Raf(V599E) kinase [6]): 153 nM |
| NC(=O)C1CCc2ccc(-n3nc(C4CCCC4)cc3NC(=O)Nc3cccc(Cl)c3Cl)cc21 (stereo not shown) [Example 305, 1-(1-(3-carbamoyl-2,3-dihydro-1H-inden-5-yl)-3-cyclopentyl-1H-pyrazol-5-yl)-3-(2,3-dichlorophenyl)urea] | – | – | 19 | – | IC50 (B-Raf(V599E) kinase [6]): 788 nM |
